Like-named read-outs stand apart in the source and are kept apart here.

The target in one assay is IRAK1 (Homo sapiens (Human), UniProt P51617). The experiment in a line: IRAK1 enzymatic assay (ADP-Glo luminescence). It counts as biochemical. The procedure: In this assay, IRAK1 hydrolyses ATP and autophosphorylates. Measurement of IRAK-1 inhibition is performed in 384-well format based on luminescence assay (ADP-Glo™ Kinase Assay from Promega). Purified human recombinant IRAK1 ([…]) and serial diluted compounds in DMSO (range of concentration from 10 μM to 0.5 nM) or controls (1% DMSO) are incubated for 15 minutes at RT in assay buffer containing 50 mM Hepes pH 7.0, Fatty acid-free BSA 0.1%, Dithiothreitol (DTT) 2 mM, MgCl2 10 mM, EGTA 0.5 mM, Triton X-100 0.01%. The kinase reaction is then initiated by the addition of ATP at a concentration of 1μM. After 2 hours of incubation at RT, the reaction is stopped and the unconsumed ATP depleted by the addition of ADP-Glo™ Reagent according to supplier instructions. After 40 minutes of incubation at RT, the Kinase Detection Reagent is then added to the assay plate according to supplier instructions. After 20 minutes of incubation at RT, the luminescence signal is measured with a luminometer (PerkinElmer Envision or equivalent reader).
IRAK1, sequence (P51617 194-712): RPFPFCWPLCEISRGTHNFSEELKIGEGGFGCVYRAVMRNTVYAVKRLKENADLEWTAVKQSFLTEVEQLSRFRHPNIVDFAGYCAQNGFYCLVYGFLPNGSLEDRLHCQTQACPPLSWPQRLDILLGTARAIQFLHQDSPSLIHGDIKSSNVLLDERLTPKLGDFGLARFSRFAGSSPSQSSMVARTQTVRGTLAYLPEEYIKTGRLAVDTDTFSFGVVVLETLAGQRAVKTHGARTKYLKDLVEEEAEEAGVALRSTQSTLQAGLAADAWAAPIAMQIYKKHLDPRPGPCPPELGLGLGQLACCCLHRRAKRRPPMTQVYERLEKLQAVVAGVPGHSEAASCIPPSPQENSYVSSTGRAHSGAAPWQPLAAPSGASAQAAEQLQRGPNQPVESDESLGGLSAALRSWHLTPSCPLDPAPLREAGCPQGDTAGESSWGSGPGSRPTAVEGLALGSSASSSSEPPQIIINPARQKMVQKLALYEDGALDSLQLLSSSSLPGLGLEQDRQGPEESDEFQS
In general terms: ADP-Glo turns the ADP formed in a reaction into a luminescent signal.

The next assay has as its target IRAK4 (Homo sapiens (Human), UniProt Q9NWZ3). The assay is described as follows: IRAK4 enzymatic assay (ADP-Glo luminescence). It counts as biochemical. The conditions noted are these: human purified recombinant His-TEV-IRAK4 (1-460), ATP 2 μM, STK1-biotin peptide 300 nM. The procedure: IRAK4 is a human purified recombinant enzyme (His-TEV-IRAK4 (1-460)).
In this assay, IRAK4 hydrolyses ATP, autophosphorylates and phosphorylates a Serine/Threonine generic peptidic substrate (STK: 61ST1BLC from CisBio International). Measurement of IRAK-4 inhibition is performed in 384-well format based on a luminescence assay (ADP-Glo™ Kinase Assay from Promega). Purified human recombinant IRAK4 (0.3 μg/ml) and serial diluted compounds in DMSO (range of concentration from 10 μM to 0.5 nM) or controls (1% DMSO) are incubated for 15 minutes at RT in assay buffer containing 50 mM Hepes pH 7.0, Fatty acid-free BSA 0.1%, Dithiothreitol (DTT) 2 mM, MgCl2 10 mM, EGTA 0.5 mM, Triton X-100 0.01%, MnCl2 5 mM. The kinase reaction is then initiated by the addition of ATP (2 μM) and the peptidic substrate STK1-biotin peptide (300 nM). After 2 hours of incubation at RT, the reaction is stopped and the unconsumed ATP depleted by the addition of ADP-Glo™ Reagent according to supplier instructions. After 40 minutes of incubation at RT, the Kinase Detection Reagent is then added to the assay plate according to supplier instructions. After 20 minutes of incubation at RT, the luminescence signal is measured with a plate-reading luminometer (PerkinElmer Envision or equivalent reader).

Setting [1] is: human purified recombinant His-TEV-IRAK1 (194-712), ATP 1 μM, read-out: IRAK1 IC50.

IRAK4, sequence (Q9NWZ3 whole entry): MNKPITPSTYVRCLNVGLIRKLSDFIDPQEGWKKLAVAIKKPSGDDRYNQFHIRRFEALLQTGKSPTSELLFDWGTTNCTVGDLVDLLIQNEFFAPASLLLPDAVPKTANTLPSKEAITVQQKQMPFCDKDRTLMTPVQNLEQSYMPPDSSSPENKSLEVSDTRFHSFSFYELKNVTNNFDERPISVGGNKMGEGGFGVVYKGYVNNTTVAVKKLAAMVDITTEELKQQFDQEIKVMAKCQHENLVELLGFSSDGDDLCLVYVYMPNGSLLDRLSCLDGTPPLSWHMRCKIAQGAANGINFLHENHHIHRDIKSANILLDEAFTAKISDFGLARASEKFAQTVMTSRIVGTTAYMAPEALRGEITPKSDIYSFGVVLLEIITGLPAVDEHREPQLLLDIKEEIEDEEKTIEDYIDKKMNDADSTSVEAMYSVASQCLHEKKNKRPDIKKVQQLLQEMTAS

Regarding `Cn1cc2c(n1)C(=O)NCCC/C=C\Cn1cc(cn1)-c1cccc(n1)C(=O)N2` [Compound 37, (7Z)-16-methyl-4,5,12,15,16,19,25-heptaazatetracyclo[19.3.1.1^2,^5.0^1^4,^1^8]hexacosa-1(24),2(26),3,7,14,17,21(25),22-octaene-13,20-dione], the values for the IC50 against IRAK1 and at IRAK4 were 100 to 1000 nM and less than 100 nM, respectively.
With `Cn1cc2c(n1)C(=O)NCC(O)C(O)CCCn1cc(cn1)-c1cccc(n1)C(=O)N2` (centres unmarked) [Compound 31, 9,10-dihydroxy-16-methyl-4,5,12,15,16,19,25-heptaazatetracyclo[19.3.1.1^2,^5.0^1^4,^1^8]hexacosa-1(24),2(26),3,14,17,21(25),22-heptaene-13,20-dione], the IC50 is 100 to 1000 nM against IRAK1 and less than 100 nM at IRAK4.
Regarding “9,10-dihydroxy-17-methyl-4,5,13,16,17,20,26-heptaazatetracyclo[20.3.1.1^2,^5.0^1^5,^1^9]heptacosa-1(25),2(27),3,15,18,22(26),23-heptaene-14,21-dione [Compound 36]”, on IRAK4, the IC50 is less than 100 nM.
As to `CN1CCNC(=O)c2nn(C)cc2NC(=O)c2cccc(n2)-c2cnn(c2)CC1` [Compound 10, 8,15-dimethyl-4,5,8,11,14,15,18,24-octaazatetracyclo[18.3.1.1^2,^5.0^13,^1^7]pentacosa-1(23),2(25),3,13,16,20(24),21-heptaene-12,19-dione], the IC50 against IRAK1 fell in the range of 1000 to 5000 nM; at IRAK4, 100 to 1000 nM.
As to `Cn1cc2c(n1)C(=O)NCCC/C=C/Cn1cc(cn1)-c1cccc(n1)C(=O)N2` [Compound 25, (7E)-16-methyl-4,5,12,15,16,19,25-heptaazatetracyclo[19.3.1.1^2,^5.0^1^4,^1^8]hexacosa-1(24),2(26),3,7,14,17,21(25),22-octaene-13,20-dione], the IC50 on IRAK1 (setting [1]) and at IRAK4 was less than 100 nM throughout.
On to `Cn1cc2c(n1)C(=O)NCCCCCCn1cc(cn1)-c1cccc(n1)C(=O)N2` [Compound 3, 16-methyl-4,5,12,15,16,19,25-heptaazatetracyclo[19.3.1.1^2,^5.0^1^4,^1^8]hexacosa-1(24),2(26),3,14,17,21(25),22-heptaene-13,20-dione], for which the IC50 on IRAK1 was 100 to 1000 nM; on IRAK4, less than 100 nM.
For `O=C1Nc2cn(C3CCOCC3)nc2C(=O)NCC[S+]([O-])CCCn2cc(cn2)-c2cccc1n2` (centres unmarked) [Compound 14, 16-(oxan-4-yl)-9λ^4-thia-4,5,12,15,16,19,25-heptaazatetracyclo[19.3.1.1^2,^5.0^1^4,^1^8]hexacosa-1(24),2(26),3,14,17,21(25),22-heptaene-9,13,20-trione], the IC50 was 100 to 1000 nM on IRAK1 and less than 100 nM at IRAK4.
As to `O=C1Nc2cn(C3CCOCC3)nc2C(=O)NCCCCCCn2cc(cn2)-c2cccc1c2` [Compound 24, 16-(oxan-4-yl)-4,5,12,15,16,19-hexaazatetracyclo[19.3.1.1^2,^5.0^1^4,^1^8]hexacosa-1(24),2(26),3,14,17,21 (25),22-heptaene-13,20-dione], the IC50 on IRAK1 was 100 to 1000 nM; at IRAK4, less than 100 nM.
In the same order, the values of `Cn1cc2c(n1)C(=O)NC1CCN(CC1O)C(=O)OCCn1cc(cn1)-c1cccc(n1)C(=O)N2` (centres unmarked) [Compound 21, 26-hydroxy-6-methyl-22-oxa-2,5,6,9,18,19,24,30-octaazapentacyclo[22.2.2.1^11,^1^5.1^1^6,^1^9.0^4,^8]triaconta-4,7,11(30),12,14,16(29),17-heptaene-3,10,23-trione] are 1000 to 5000 nM and 100 to 1000 nM.
As to `Cn1cc2c(n1)C(=O)NCCC(O)C(O)CCn1cc(cn1)-c1cccc(n1)C(=O)N2` (centres unmarked) [Compound 33, 8,9-dihydroxy-16-methyl-4,5,12,15,16,19,25-heptaazatetracyclo[19.3.1.1^2,^5.0^1^4,^1^8]hexacosa-1(24),2(26),3,14,17,21(25),22-heptaene-13,20-dione], the IC50 was 100 to 1000 nM at IRAK1 and less than 100 nM on IRAK4.
“15-methyl-4,5,11,14,15,18,24-heptaazatetracyclo[18.3.1.1^2,^5.0^13,^1^7]pentacosa-1(23),2(25),3,13,16,20(24),21-heptaene-12,19-dione [Compound 2]”: on IRAK4, the IC50 fell in the range of 100 to 1000 nM.
`Cn1cc2c(n1)C(=O)NCC1CCN(CCn3cc(cn3)-c3cccc(n3)C(=O)N2)C1` (centres unmarked) [Compound 9, 17-methyl-4,5,8,13,16,17,20,26-octaazapentacyclo[20.3.1.1^2,^5.1^8,^11.0^1^5,^1^9]octacosa-1(25),2(28),3,15,18,22(26),23-heptaene-14,21-dione]: the IC50 is 1000 to 5000 nM at IRAK1 and less than 100 nM on IRAK4.
Regarding `O=C1Nc2cn(C3CCOCC3)nc2C(=O)NCCSCCCn2cc(cn2)-c2cccc1n2` [Compound 13, 6-(oxan-4-yl)-9-thia-4,5,12,15,16,19,25-heptaazatetracyclo[19.3.1.1^2,^5.0^1^4,^1^8]hexacosa-1(24),2(26),3,14,17,21(25),22-heptaene-13,20-dione], the figures for the concentration for half-maximal inhibition (IC50) on IRAK1 and at IRAK4 were 100 to 1000 nM and less than 100 nM, respectively.
Regarding `Cn1cc2c(n1)C(=O)NCC1CN(CCO1)C(=O)OCCn1cc(cn1)-c1cccc(n1)C(=O)N2` (centres unmarked) [Compound 8, 20-methyl-8,13-dioxa-4,5,10,16,19,20,23,29-octaazapentacyclo[23.3.1.1^2,^5.1^1^0,^1^4.0^1^8,^22]hentriaconta-1(28),2(31),3,18,21,25(29),26-heptaene-9,17,24-trione], the values for the IC50 on IRAK1 (setting [1]) and on IRAK4 were greater than 5000 nM and 100 to 1000 nM, respectively.
For the molecule `Cn1cc2c(n1)C(=O)NC/C=C/CCCn1cc(cn1)-c1cccc(n1)C(=O)N2` [Compound 29, (9E)-16-methyl-4,5,12,15,16,19,25-heptaazatetracyclo[19.3.1.1^2,^5.0^1^4,^1^8]hexacosa-1(24),2(26),3,9,14,17,21(25),22-octaene-13,20-dione], the IC50 was 100 to 1000 nM against IRAK1 and less than 100 nM at IRAK4.
On the same counts, the results for `CN(C)CCN1CCC(n2cc3c(n2)C(=O)NCCCCCCn2cc(cn2)-c2cccc(n2)C(=O)N3)CC1` [Compound 23, 6-{1-[2-(dimethylamino)ethyl]piperidin-4-yl}-4,5,12,15,16,19,25-heptaazatetracyclo[19.3.1.1^2,^5.0^1^4,^1^8]hexacosa-1(24),2(26),3,14,17,21(25),22-heptaene-13,20-dione] are 100 to 1000 nM and less than 100 nM.
On to `O=C1Nc2cn(C3CCN(C(=O)C4CC4(F)F)CC3)nc2C(=O)NCCCCCCn2cc(cn2)-c2cccc1n2` (centres unmarked) [Compound 18, 16-[1-(2,2-difluorocyclopropanecarbonyl)piperidin-4-yl]-4,5,12,15,16,19,25-heptaazatetracyclo[19.3.1.1^2,^5.0^1^4,^1^8]hexacosa-1(24),2(26),3,14,17,21 (25),22-heptaene-13,20-dione], for which the figures for the IC50 against IRAK1 and on IRAK4 were 100 to 1000 nM and less than 100 nM, respectively.
On the same counts, the results for `O=C1Nc2cn(C3CCN(C(=O)NC4CC4)CC3)nc2C(=O)NCCCCCCn2cc(cn2)-c2cccc1n2` [Compound 19, N-cyclopropyl-4-{13,20-dioxo-4,5,12,15,16,19,25-heptaazatetracyclo[19.3.1.1^2,^5.0^1^4,^1^8]hexacosa-1(24),2(26),3,14,17,21(25),22-heptaen-16-yl}piperidine-1-carboxamide] are 100 to 1000 nM and less than 100 nM.
Consider `O=C1Nc2cn(C3CCNCC3)nc2C(=O)NCCCCCCn2cc(cn2)-c2cccc1n2` [Compound 16, 16-(piperidin-4-yl)-4,5,12,15,16,19,25-heptaazatetracyclo[19.3.1.1^2,^5.0^1^4,^1^8]hexacosa-1 (24),2(26),3,14,17,21(25),22-heptaene-13,20-dione], for which the IC50 on IRAK1 is 100 to 1000 nM; at IRAK4, less than 100 nM.
On to “17-methyl-4,5,13,16,17,20,26-heptaazatetracyclo[20.3.1.1^2,^5.0^1^5,^1^9]heptacosa-1(25),2(27),3,15,18,22(26),23-heptaene-14,21-dione [Compound 35]”, for which, on IRAK4, the IC50 is less than 100 nM.
For “(9E)-17-methyl-4,5,13,16, 17,20,26-heptaazatetracyclo[20.3.1.1^2,^5.0^1^5,^1^9]heptacosa-1(25),2(27),3,9,15,18,22(26),23-octaene-14,21-dione [Compound 34]”, at IRAK4, the IC50 is less than 100 nM.

One may read the IC50 as the point on the concentration scale where inhibition reaches its midpoint.
